Results from the kinase profiling compilation of Christmann-Franck et al. (2016).

Experiments:
Assay in all cases: radiometric filter-binding kinase assay, Kinase HotSpot
Details in all cases: compound 0.5 µM; ATP 10 µM
ADRBK2 (human) = ADRBK2 (human) (UniProt P35626)
AKT3 (human) = AKT3 (human) (UniProt Q9Y243)
CAMK2B (human) = CAMK2B (human) (UniProt Q13554)
CDK6 CCND1 (human) = CDK6 CCND1 (human) (UniProt Q00534+P24385)
CLK2 (human) = CLK2 (human) (UniProt P49760)
DAPK2 (human) = DAPK2 (human) (UniProt Q9UIK4)
DCLK2 (human) = DCLK2 (human) (UniProt Q8N568)
DSTYK (human) = DSTYK (human) (UniProt Q6XUX3)
EPHA1 (human) = EPHA1 (human) (UniProt P21709)
ERBB2 (human) = ERBB2 (human) (UniProt P04626)
GRK5 (human) = GRK5 (human) (UniProt P34947)
IGF1R (human) = IGF1R (human) (UniProt P08069)
INSR (human) = INSR (human) (UniProt P06213)
LCK (human) = LCK (human) (UniProt P06239)
MAP3K11 (human) = MAP3K11 (human) (UniProt Q16584)
MAP3K2 (human) = MAP3K2 (human) (UniProt Q9Y2U5)
MAP3K7 TAB1 (human) = MAP3K7 TAB1 (human) (UniProt O43318+Q15750)
MAP3K9 (human) = MAP3K9 (human) (UniProt P80192)
MAP4K4 (human) = MAP4K4 (human) (UniProt O95819)
MAPK13 (human) = MAPK13 (human) (UniProt O15264)
MARK1 (human) = MARK1 (human) (UniProt Q9P0L2)
MET (human) = MET (human) (UniProt P08581)
MINK1 (human) = MINK1 (human) (UniProt Q8N4C8)
MUSK (human) = MUSK (human) (UniProt O15146)
MYLK (human) = MYLK (human) (UniProt Q15746)
NLK (human) = NLK (human) (UniProt Q9UBE8)
NTRK2 (human) = NTRK2 (human) (UniProt Q16620)
NTRK3 (human) = NTRK3 (human) (UniProt Q16288)
PAK1 (human) = PAK1 (human) (UniProt Q13153)
PRKCB2 (human) = PRKCB2 (human) (UniProt P05771)
PRKCG (human) = PRKCG (human) (UniProt P05129)
PRKD2 (human) = PRKD2 (human) (UniProt Q9BZL6)
RPS6KA5 KD2 (human) = RPS6KA5 KD2 (human) (UniProt O75582)
SRC (human) = SRC (human) (UniProt P12931)
SRPK2 (human) = SRPK2 (human) (UniProt P78362)
STK11 (human) = STK11 (human) (UniProt Q15831)
STK17A (human) = STK17A (human) (UniProt Q9UEE5)
STK39 (human) = STK39 (human) (UniProt Q9UEW8)
STK4 (human) = STK4 (human) (UniProt Q13043)
TEK (human) = TEK (human) (UniProt Q02763)
WNK2 (human) = WNK2 (human) (UniProt Q9Y3S1)

MAPK13 (human), sequence (O15264 whole entry, looked up): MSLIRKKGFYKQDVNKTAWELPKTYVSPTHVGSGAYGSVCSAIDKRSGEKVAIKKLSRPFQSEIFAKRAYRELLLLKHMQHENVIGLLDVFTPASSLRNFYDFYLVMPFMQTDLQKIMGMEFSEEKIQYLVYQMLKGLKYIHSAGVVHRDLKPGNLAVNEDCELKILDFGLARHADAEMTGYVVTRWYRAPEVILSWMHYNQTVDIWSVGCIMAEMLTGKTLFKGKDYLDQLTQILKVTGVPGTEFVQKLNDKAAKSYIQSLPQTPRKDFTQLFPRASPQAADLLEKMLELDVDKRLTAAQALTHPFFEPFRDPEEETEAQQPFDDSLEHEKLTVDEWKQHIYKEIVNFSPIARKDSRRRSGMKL
GRK5 (human), sequence (P34947 whole entry, looked up): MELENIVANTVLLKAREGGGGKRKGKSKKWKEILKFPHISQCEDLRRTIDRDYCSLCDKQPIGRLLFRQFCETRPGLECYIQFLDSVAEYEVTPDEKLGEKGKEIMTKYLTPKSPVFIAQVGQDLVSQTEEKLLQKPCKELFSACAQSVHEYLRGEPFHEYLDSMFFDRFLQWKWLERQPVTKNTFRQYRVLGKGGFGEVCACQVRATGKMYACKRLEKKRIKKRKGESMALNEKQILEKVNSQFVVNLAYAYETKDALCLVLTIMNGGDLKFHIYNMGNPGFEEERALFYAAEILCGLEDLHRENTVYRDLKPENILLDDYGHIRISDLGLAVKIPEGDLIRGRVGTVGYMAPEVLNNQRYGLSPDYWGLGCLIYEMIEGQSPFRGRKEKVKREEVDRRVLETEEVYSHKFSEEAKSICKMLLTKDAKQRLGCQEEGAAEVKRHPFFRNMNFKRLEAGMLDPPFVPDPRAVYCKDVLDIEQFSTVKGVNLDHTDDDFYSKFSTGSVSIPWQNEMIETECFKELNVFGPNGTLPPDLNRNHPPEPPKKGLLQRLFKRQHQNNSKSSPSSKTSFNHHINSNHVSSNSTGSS
MUSK (human), sequence (O15146 whole entry, looked up): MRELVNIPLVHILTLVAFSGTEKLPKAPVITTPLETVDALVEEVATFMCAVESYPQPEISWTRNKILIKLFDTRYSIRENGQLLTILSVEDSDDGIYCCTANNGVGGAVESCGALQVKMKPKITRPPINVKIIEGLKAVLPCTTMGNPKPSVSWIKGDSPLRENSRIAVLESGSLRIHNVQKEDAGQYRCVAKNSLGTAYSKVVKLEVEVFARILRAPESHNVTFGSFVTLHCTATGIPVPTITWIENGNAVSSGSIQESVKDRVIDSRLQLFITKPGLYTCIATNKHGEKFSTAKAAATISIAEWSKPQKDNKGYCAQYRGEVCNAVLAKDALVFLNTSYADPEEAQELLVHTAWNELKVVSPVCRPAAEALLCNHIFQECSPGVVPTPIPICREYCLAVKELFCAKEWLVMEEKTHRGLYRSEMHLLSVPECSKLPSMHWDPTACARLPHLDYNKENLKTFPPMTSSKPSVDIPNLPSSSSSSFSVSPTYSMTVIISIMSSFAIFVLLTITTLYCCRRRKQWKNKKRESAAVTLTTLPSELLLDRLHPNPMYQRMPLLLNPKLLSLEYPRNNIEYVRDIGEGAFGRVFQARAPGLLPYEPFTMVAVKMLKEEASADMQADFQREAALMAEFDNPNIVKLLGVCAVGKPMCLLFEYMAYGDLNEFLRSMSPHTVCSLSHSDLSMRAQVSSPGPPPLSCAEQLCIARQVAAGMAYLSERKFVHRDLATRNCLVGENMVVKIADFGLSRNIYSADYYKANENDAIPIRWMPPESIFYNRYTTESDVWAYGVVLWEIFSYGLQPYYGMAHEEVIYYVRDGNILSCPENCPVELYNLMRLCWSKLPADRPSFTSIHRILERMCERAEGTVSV
DSTYK (human), sequence (Q6XUX3 whole entry, looked up): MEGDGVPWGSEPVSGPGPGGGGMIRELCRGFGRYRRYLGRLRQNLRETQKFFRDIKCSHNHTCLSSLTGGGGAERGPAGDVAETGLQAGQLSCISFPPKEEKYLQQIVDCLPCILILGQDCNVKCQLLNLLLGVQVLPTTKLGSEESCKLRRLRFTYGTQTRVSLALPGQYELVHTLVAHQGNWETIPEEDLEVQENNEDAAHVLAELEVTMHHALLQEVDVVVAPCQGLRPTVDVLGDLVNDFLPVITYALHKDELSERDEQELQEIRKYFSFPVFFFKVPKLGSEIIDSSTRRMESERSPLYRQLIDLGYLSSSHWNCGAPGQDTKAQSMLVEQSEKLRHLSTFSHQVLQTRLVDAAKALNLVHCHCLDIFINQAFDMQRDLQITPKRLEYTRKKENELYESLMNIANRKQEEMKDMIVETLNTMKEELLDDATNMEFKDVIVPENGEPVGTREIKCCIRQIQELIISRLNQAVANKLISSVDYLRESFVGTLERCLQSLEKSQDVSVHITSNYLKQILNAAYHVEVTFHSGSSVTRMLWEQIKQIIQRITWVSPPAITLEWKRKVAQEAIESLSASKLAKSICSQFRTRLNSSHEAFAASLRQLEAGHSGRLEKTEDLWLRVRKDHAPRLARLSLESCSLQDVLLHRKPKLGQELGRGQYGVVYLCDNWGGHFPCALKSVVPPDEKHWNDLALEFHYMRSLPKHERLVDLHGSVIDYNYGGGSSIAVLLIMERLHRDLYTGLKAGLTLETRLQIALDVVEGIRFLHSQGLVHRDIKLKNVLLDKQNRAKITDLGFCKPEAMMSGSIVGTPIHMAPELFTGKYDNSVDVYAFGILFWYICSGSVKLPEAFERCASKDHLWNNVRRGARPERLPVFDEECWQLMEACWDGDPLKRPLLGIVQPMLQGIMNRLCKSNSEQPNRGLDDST
ADRBK2 (human), sequence (P35626 whole entry, looked up): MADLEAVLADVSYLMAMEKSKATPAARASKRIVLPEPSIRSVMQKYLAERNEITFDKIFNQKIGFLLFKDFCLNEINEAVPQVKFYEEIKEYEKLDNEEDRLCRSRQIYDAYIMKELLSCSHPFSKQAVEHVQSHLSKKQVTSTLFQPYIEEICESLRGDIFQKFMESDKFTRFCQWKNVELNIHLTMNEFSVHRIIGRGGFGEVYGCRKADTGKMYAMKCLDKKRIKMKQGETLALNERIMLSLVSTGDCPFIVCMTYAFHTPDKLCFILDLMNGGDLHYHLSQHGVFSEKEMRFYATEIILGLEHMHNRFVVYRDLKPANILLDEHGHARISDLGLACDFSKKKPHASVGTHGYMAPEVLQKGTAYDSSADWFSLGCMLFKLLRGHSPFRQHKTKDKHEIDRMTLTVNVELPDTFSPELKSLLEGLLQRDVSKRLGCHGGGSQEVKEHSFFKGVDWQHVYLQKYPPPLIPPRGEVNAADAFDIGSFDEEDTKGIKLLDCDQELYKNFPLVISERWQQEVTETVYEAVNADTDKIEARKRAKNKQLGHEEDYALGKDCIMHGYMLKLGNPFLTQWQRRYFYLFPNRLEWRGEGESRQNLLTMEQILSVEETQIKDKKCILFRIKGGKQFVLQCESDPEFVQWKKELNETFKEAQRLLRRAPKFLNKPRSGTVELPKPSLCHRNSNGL
EPHA1 (human), sequence (P21709 whole entry, looked up): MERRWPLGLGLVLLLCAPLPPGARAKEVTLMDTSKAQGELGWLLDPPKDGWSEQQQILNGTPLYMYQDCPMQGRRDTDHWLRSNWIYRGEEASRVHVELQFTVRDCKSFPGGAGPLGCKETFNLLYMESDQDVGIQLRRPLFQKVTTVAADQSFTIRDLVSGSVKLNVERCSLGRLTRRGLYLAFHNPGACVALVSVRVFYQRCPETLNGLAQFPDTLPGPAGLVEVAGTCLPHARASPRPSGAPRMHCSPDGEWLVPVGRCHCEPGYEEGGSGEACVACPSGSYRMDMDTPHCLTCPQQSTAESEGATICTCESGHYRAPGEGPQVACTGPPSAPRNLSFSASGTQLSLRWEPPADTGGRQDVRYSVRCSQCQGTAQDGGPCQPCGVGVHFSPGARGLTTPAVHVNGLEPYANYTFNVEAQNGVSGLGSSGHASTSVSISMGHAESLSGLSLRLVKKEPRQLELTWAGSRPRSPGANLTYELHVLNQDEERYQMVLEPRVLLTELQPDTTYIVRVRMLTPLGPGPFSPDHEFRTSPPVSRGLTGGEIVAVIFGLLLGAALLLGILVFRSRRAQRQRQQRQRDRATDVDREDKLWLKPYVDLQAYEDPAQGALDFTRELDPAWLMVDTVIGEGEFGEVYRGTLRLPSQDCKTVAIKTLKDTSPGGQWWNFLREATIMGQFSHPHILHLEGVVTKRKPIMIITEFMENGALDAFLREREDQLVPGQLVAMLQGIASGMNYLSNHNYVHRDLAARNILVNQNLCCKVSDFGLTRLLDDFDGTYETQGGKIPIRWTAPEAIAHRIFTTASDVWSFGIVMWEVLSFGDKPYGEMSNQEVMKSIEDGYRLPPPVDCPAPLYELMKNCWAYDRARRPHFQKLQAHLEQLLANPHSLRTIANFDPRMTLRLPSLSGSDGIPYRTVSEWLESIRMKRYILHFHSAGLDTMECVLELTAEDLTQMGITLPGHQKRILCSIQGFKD
STK11 (human), sequence (Q15831 whole entry, looked up): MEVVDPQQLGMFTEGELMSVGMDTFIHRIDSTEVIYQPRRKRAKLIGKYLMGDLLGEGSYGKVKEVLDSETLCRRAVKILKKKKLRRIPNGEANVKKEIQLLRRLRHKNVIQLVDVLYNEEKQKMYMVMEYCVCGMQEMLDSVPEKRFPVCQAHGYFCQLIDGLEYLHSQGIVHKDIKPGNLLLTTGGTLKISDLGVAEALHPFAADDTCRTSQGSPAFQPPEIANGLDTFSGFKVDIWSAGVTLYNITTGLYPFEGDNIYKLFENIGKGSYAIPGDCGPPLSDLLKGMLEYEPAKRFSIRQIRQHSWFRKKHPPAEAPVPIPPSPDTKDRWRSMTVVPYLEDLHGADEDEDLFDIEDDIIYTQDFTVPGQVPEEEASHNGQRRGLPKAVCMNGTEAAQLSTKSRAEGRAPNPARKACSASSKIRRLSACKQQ

Nc1cccc(-c2cc3c(Oc4cccc(O)c4)ncnc3[nH]2)c1
residual activity (ADRBK2 (human)): 101% | residual activity (AKT3 (human)): 96.2% | residual activity (CAMK2B (human)): 101% | residual activity (CDK6 CCND1 (human)): 82.2% | residual activity (CLK2 (human)): 98.8% | residual activity (DAPK2 (human)): 106% | residual activity (DCLK2 (human)): 89% | residual activity (DSTYK (human)): 83.4% | residual activity (EPHA1 (human)): 31.2% | residual activity (ERBB2 (human)): 76.6% | residual activity (GRK5 (human)): 128% | residual activity (IGF1R (human)): 99.5% | residual activity (INSR (human)): 93.7% | residual activity (LCK (human)): 24.2% | residual activity (MAP3K11 (human)): 52.4% | residual activity (MAP3K2 (human)): 86.9% | residual activity (MAP3K7 TAB1 (human)): 63% | residual activity (MAP3K9 (human)): 16.2% | residual activity (MAP4K4 (human)): 12.5% | residual activity (MAPK13 (human)): 104% | residual activity (MARK1 (human)): 83% | residual activity (MET (human)): 110% | residual activity (MINK1 (human)): 34.7% | residual activity (MUSK (human)): 62.8% | residual activity (MYLK (human)): 81.7% | residual activity (NLK (human)): 87.7% | residual activity (NTRK2 (human)): 95.5% | residual activity (NTRK3 (human)): 63.3% | residual activity (PAK1 (human)): 88% | residual activity (PRKCB2 (human)): 97.5% | residual activity (PRKCG (human)): 88.1% | residual activity (PRKD2 (human)): 81.7% | residual activity (RPS6KA5 KD2 (human)): 83.6% | residual activity (SRC (human)): 2.07% | residual activity (SRPK2 (human)): 99.1% | residual activity (STK11 (human)): 12.4% | residual activity (STK17A (human)): 93.7% | residual activity (STK39 (human)): 119% | residual activity (STK4 (human)): 94.4% | residual activity (TEK (human)): 60.7% | residual activity (WNK2 (human)): 103%

c1ccc(-c2n[nH]c3c2oc2ccccc23)cc1
residual activity (ADRBK2 (human)): 119% | residual activity (AKT3 (human)): 84.4% | residual activity (CAMK2B (human)): 101% | residual activity (CDK6 CCND1 (human)): 90.4% | residual activity (CLK2 (human)): 94.8% | residual activity (DAPK2 (human)): 71.2% | residual activity (DCLK2 (human)): 90.2% | residual activity (DSTYK (human)): 82.9% | residual activity (EPHA1 (human)): 78.6% | residual activity (ERBB2 (human)): 104% | residual activity (GRK5 (human)): 123% | residual activity (IGF1R (human)): 98.1% | residual activity (INSR (human)): 94.4% | residual activity (LCK (human)): 99.3% | residual activity (MAP3K11 (human)): 91.8% | residual activity (MAP3K2 (human)): 85.9% | residual activity (MAP3K7 TAB1 (human)): 104% | residual activity (MAP3K9 (human)): 97.5% | residual activity (MAP4K4 (human)): 36.1% | residual activity (MAPK13 (human)): 109% | residual activity (MARK1 (human)): 98.6% | residual activity (MET (human)): 98.4% | residual activity (MINK1 (human)): 81.4% | residual activity (MUSK (human)): 72.6% | residual activity (MYLK (human)): 86.1% | residual activity (NLK (human)): 92.3% | residual activity (NTRK2 (human)): 64% | residual activity (NTRK3 (human)): 42.7% | residual activity (PAK1 (human)): 94.9% | residual activity (PRKCB2 (human)): 113% | residual activity (PRKCG (human)): 99.9% | residual activity (PRKD2 (human)): 86.9% | residual activity (RPS6KA5 KD2 (human)): 94.9% | residual activity (SRC (human)): 81.3% | residual activity (SRPK2 (human)): 95% | residual activity (STK11 (human)): 107% | residual activity (STK17A (human)): 84.4% | residual activity (STK39 (human)): 120% | residual activity (STK4 (human)): 99.8% | residual activity (TEK (human)): 96.8% | residual activity (WNK2 (human)): 102%

CC[n+]1c(/C=C/N(C)c2ccccc2)n(-c2ccccc2)c2ccc(-c3nc4ccccc4s3)cc21
residual activity (ADRBK2 (human)): 97.4% | residual activity (AKT3 (human)): 109% | residual activity (CAMK2B (human)): 103% | residual activity (CDK6 CCND1 (human)): 103% | residual activity (CLK2 (human)): 98.4% | residual activity (DAPK2 (human)): 94.3% | residual activity (DCLK2 (human)): 102% | residual activity (DSTYK (human)): 103% | residual activity (EPHA1 (human)): 77.1% | residual activity (ERBB2 (human)): 92% | residual activity (GRK5 (human)): 109% | residual activity (IGF1R (human)): 93% | residual activity (INSR (human)): 94% | residual activity (LCK (human)): 89.9% | residual activity (MAP3K11 (human)): 102% | residual activity (MAP3K2 (human)): 90.3% | residual activity (MAP3K7 TAB1 (human)): 98.8% | residual activity (MAP3K9 (human)): 98.3% | residual activity (MAP4K4 (human)): 110% | residual activity (MAPK13 (human)): 102% | residual activity (MARK1 (human)): 104% | residual activity (MET (human)): 108% | residual activity (MINK1 (human)): 99% | residual activity (MUSK (human)): 94.7% | residual activity (MYLK (human)): 98.4% | residual activity (NLK (human)): 105% | residual activity (NTRK2 (human)): 97.8% | residual activity (NTRK3 (human)): 100% | residual activity (PAK1 (human)): 87.5% | residual activity (PRKCB2 (human)): 118% | residual activity (PRKCG (human)): 99.4% | residual activity (PRKD2 (human)): 102% | residual activity (RPS6KA5 KD2 (human)): 111% | residual activity (SRC (human)): 94.5% | residual activity (SRPK2 (human)): 105% | residual activity (STK11 (human)): 93.1% | residual activity (STK17A (human)): 96.9% | residual activity (STK39 (human)): 81.1% | residual activity (STK4 (human)): 98.3% | residual activity (TEK (human)): 96% | residual activity (WNK2 (human)): 112%

Cc1ccc(S(=O)(=O)/C=C/C#N)cc1
residual activity (ADRBK2 (human)): 99.1% | residual activity (AKT3 (human)): 93.7% | residual activity (CAMK2B (human)): 106% | residual activity (CDK6 CCND1 (human)): 91.4% | residual activity (CLK2 (human)): 103% | residual activity (DAPK2 (human)): 100% | residual activity (DCLK2 (human)): 96.1% | residual activity (DSTYK (human)): 97.8% | residual activity (EPHA1 (human)): 93.2% | residual activity (ERBB2 (human)): 94.2% | residual activity (GRK5 (human)): 105% | residual activity (IGF1R (human)): 93.5% | residual activity (INSR (human)): 108% | residual activity (LCK (human)): 93.7% | residual activity (MAP3K11 (human)): 98.2% | residual activity (MAP3K2 (human)): 91.8% | residual activity (MAP3K7 TAB1 (human)): 99.9% | residual activity (MAP3K9 (human)): 96.9% | residual activity (MAP4K4 (human)): 106% | residual activity (MAPK13 (human)): 92.2% | residual activity (MARK1 (human)): 102% | residual activity (MET (human)): 94.7% | residual activity (MINK1 (human)): 111% | residual activity (MUSK (human)): 107% | residual activity (MYLK (human)): 93.9% | residual activity (NLK (human)): 99.2% | residual activity (NTRK2 (human)): 98.5% | residual activity (NTRK3 (human)): 95.5% | residual activity (PAK1 (human)): 89.5% | residual activity (PRKCB2 (human)): 104% | residual activity (PRKCG (human)): 92.9% | residual activity (PRKD2 (human)): 98.1% | residual activity (RPS6KA5 KD2 (human)): 109% | residual activity (SRC (human)): 102% | residual activity (SRPK2 (human)): 108% | residual activity (STK11 (human)): 91.1% | residual activity (STK17A (human)): 97.8% | residual activity (STK39 (human)): 83.7% | residual activity (STK4 (human)): 94.7% | residual activity (TEK (human)): 101% | residual activity (WNK2 (human)): 124%

Cc1ccc(NC2=CC(=O)c3sc(C)nc3C2=O)cc1
residual activity (ADRBK2 (human)): 84.5% | residual activity (AKT3 (human)): 92.8% | residual activity (CAMK2B (human)): 109% | residual activity (CDK6 CCND1 (human)): 101% | residual activity (CLK2 (human)): 83.6% | residual activity (DAPK2 (human)): 91.9% | residual activity (DCLK2 (human)): 95.3% | residual activity (DSTYK (human)): 76.1% | residual activity (EPHA1 (human)): 86.1% | residual activity (ERBB2 (human)): 94.2% | residual activity (GRK5 (human)): 106% | residual activity (IGF1R (human)): 92.2% | residual activity (INSR (human)): 92.6% | residual activity (LCK (human)): 94.2% | residual activity (MAP3K11 (human)): 101% | residual activity (MAP3K2 (human)): 93.3% | residual activity (MAP3K7 TAB1 (human)): 99.1% | residual activity (MAP3K9 (human)): 86.7% | residual activity (MAP4K4 (human)): 84.5% | residual activity (MAPK13 (human)): 105% | residual activity (MARK1 (human)): 89.6% | residual activity (MET (human)): 99.7% | residual activity (MINK1 (human)): 101% | residual activity (MUSK (human)): 89.1% | residual activity (MYLK (human)): 90.1% | residual activity (NLK (human)): 107% | residual activity (NTRK2 (human)): 100% | residual activity (NTRK3 (human)): 94% | residual activity (PAK1 (human)): 87.5% | residual activity (PRKCB2 (human)): 93.8% | residual activity (PRKCG (human)): 77% | residual activity (PRKD2 (human)): 87.7% | residual activity (RPS6KA5 KD2 (human)): 87.7% | residual activity (SRC (human)): 79.6% | residual activity (SRPK2 (human)): 101% | residual activity (STK11 (human)): 85.6% | residual activity (STK17A (human)): 93.7% | residual activity (STK39 (human)): 93.4% | residual activity (STK4 (human)): 93.5% | residual activity (TEK (human)): 95.9% | residual activity (WNK2 (human)): 97.7%
